According to US20160279207A1, “TARGETING GDF6 AND BMP SIGNALING FOR ANTI-MELANOMA THERAPY” (University of Massachusetts, priority 2015, published 2016):
“Also recorded” adds a separate entry of the source.

Columns and labels:
BMP signaling = assay: Western blot of phospho-SMAD1 relative to total SMAD in DMH1-treated A375 cells; assay type: cell-based, human; settings: 10 μM DMH1 vs control media
Procedure: Protein extracts were prepared as previously described (S. D. Epstein L B, Hunte-McDonough B, harris C A, Cytokines: A pratical approach (Balkwill F R., ed). 81-93 (1991)). Extracts were separated on 12% SDS-PAGE gels. Blots were probed with primary antibodies (GDF6 (Sigma PRS4691; 1:1000), phospho-SMAD1/5/8 (Cell Signaling 13820; 1:1000), SMAD1 (Cell Signaling 9743; 1:500), Total SMAD1/5/8 (Santa Cruz sc-6031-R; 1:1000), FLAG (Sigma F3165, 1:2000), GAPDH (Abcam 8245; 1:2000)) overnight at 4° C., washed five times in TBS plus 0.1% Tween (TBST) and then incubated with the appropriate HRP-conjugated secondary antibody (Jackson Labs) for 1 hour at room temperature. Membranes were washed five times in TBST and visualized on autoradiography film after incubating with ECL reagent (Supersignal West Pico or Supersignal West Femto; Thermo Scientific).

A375 melanoma cells [1] = assay: Growth curves of A375 cells by direct cell counting; assay type: cell-based, human; settings: 10 μM DMH1 vs control
Procedure: (§1) For growth curves 50,000 live cells were seeded per well in a 6-well tissue culture plate on day 0. The numbers of live cells were calculated every day using an automated cell counter (Nexcelom Bioscience Cellometer Auto T4) following standard procedures. All assays were performed with technical replicates. For clonogenic assays, 3,000 live cells were seeded in a 10 cm tissue culture plate. After 3 weeks, colonies were fixed and stained using bromophenol blue in acetone. ImageJ was used to quantify the number of colonies. In assays with DMH1 treatment, control or DMH1-containing media was replaced every other day. For soft agar assays a 0.5% bottom layer (1:1 with 1% agar and 2X DMEM with 20% FBS) and a 0.3% top layer (1:1 with 0.6% agar and 2× DMEM with 20% FBS) were used. 3,000 live cells per well of a 6-well tissue culture plate were added in the top layer. Media was added initially then replaced every 3 days. After 3 weeks, colonies were stained with nitroblue tetrazolium chloride overnight at 37° C. Once stained, individual wells were photographed, and ImageJ was used to count the number of colonies. All these assays were done in triplicate, and experiments were repeated at least twice. A representative image of each has been shown.

SKMEL28 melanoma cells = assay: Growth curves of SKMEL28 cells by direct cell counting; assay type: cell-based, human; settings: DMH1 vs control
Procedure: as §1

A375 melanoma cells [2] = assay: Clonogenic growth (colony formation) assay; assay type: cell-based, human; settings: A375-EMPTY vs A375-SMAD1DVD, 10 μM DMH1 in 0.1% DMSO
Procedure: as §1, with “After 3 weeks, colonies were fixed and stained using bromophenol blue in acetone.” left out

A375 melanoma cells [3] = assay: A375 melanoma xenograft in nude mice, tumor volume; assay type: in vivo, mouse; settings: 25 mg/kg DMH1 intraperitoneally every other day, A375 cells in BALB/c nu/nu mice
Procedure: An art-accepted model to test for an agent's effects on melanoma is that of using immunocompromised (“nude”) mice which are then injected subcutaneously with melanoma cells, and then concomitant with injection of the cells, sometime after injection, and/or after tumor establishment, the test agent is appropriately administered (e.g., intravenously, peritoneally, orally, etc.). Control and treated animals are monitored in part for tumor growth, tumor stabilization, and tumor regression (see for example, Yang et al. 2010. Cancer Res., 70:5518-5527 and Bollag et al. 2010. Nature. 467:596-599).
All animal protocols were approved by the UMMS Institution Animal Care and Use Committee (A-2016, A-2171). Mice were randomly allocated to individual experimental groups. No blinding was done as animal groups were identified by tagging and cage labeling. Animals were excluded, according to pre-established criteria, if the tumor volume reached >1,000 mm^3; if tumor size or location affected the mobility or general health of animal, the animal was euthanized and excluded from the experiment or the complete experiment was terminated. A375 cells stably expressing an EGFP or GDF6 or SMAD1 shRNA and/or empty vector or GDF6-expressing vector or SMAD1DVD-overexpressing vector were subcutaneously injected into the flanks of 6-8-week-old BALB/c nu/nu female mice (Taconic Farms) to produce orthotopic primary tumor. Primary tumor growth was monitored every 3 days with calipers, and the tumor volume was calculated as described previously (C. Gazin, N. Wajapeyee, S. Gobeil, C. M. Virbasius, M. R. Green, An elaborate pathway required for Ras-mediated epigenetic silencing. Nature 449, 1073-1077 (2007)). For GDF6 knockdown, SMAD1 knockdown and epistasis experiments, 1×10^7 live cells were injected. For GDF6 overexpression experiments, 1×10^6 live cells were injected. For GDF6 overexpression and GDF6 knockdowns, a representative of two independent experiments (n=3 animals per experiment) is shown. For DMH1 drug experiments, 1×10^6 live A375 cells were subcutaneously injected in the flanks of BALB/c nu/nu female mice. Beginning on the day cells were injected, mice were injected intraperitoneally with vehicle 12.5% 2-hydroxypropyl-β-cyclodextrin or 25 mg/kg DMH1 in vehicle every other day. The growth of the tumor was monitored as described above. This experiment was repeated twice and the weighted average of both experiments (n=8 total) is represented.

CC(C)Oc1ccc(-c2cnc3c(-c4ccnc5ccccc45)cnn3c2)cc1 [DMH1] was tested, and the “level of phospho-SMAD1 relative to total SMAD protein” value (BMP signaling) was “reduced level of phospho-SMAD1 relative to total SMAD protein”, the “A375 melanoma cell growth (growth curves)” value (A375 melanoma cells [1]) was “grew more slowly than did control cells; also recorded: inhibits A375 melanoma cell growth” and the “SKMEL28 melanoma cell growth (growth curves)” value (SKMEL28 melanoma cells) was “grew more slowly than did control cells”. For the same molecule, the “colony formation of DMH1-treated cells expressing SMAD1DVD” value (A375 melanoma cells [2]) was “reversed by SMAD1DVD” and the “tumor growth (tumor volume over time), DMH1 vs vehicle” value (A375 melanoma cells [3]) was “smaller tumors arose and grew more slowly; also recorded: decreased tumorigenicity; also recorded: abrogates melanoma growth in mouse xenografts in vivo”.
